Assay results: PubChem BioAssay (NCI)
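How tested: cells in 96-well plates exposed to compound for 48 hours at five concentrations. The concentration for 50% growth inhibition is given as GI50. Definition used: TGI = concentration required for complete inhibition of growth.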

Tests used:
Test in all cases: NCI tumour cell line growth inhibition, 48 h
ACHN renal = test system: ACHN renal
U251 CNS = test system: U251 CNS
UACC-62 melanoma = test system: UACC-62 melanoma
HCT-15 colon = test system: HCT-15 colon
MCF7 breast = test system: MCF7 breast
MDA-MB-231 breast = test system: MDA-MB-231 breast
RPMI-8226 leukemia = test system: RPMI-8226 leukemia
SF-268 CNS = test system: SF-268 CNS
A498 renal = test system: A498 renal
MALME-3M melanoma = test system: MALME-3M melanoma

O=C1c2cc([N+](=O)[O-])ccc2NC2C(O)c3ccccc3N12 (stereo not drawn)
TGI (ACHN renal): 80.7 µM | TGI (U251 CNS): > 100 µM | TGI (UACC-62 melanoma): 47.9 µM | TGI (HCT-15 colon): > 100 µM | TGI (MCF7 breast): > 100 µM | TGI (MDA-MB-231 breast): > 100 µM | TGI (RPMI-8226 leukemia): 44.1 µM | TGI (SF-268 CNS): > 100 µM | TGI (A498 renal): 41.8 µM

CC1(C)CC(=O)C(/C=N/c2nc(-c3ccc(Br)cc3)cs2)=C(O)C1
TGI (ACHN renal): > 100 µM | TGI (U251 CNS): > 100 µM | TGI (HCT-15 colon): 49.7 µM | TGI (MCF7 breast): > 100 µM | TGI (MDA-MB-231 breast): > 100 µM

CC(=O)Oc1ccc2cc(Oc3ccc(Cl)cc3)c(=O)oc2c1
TGI (ACHN renal): > 100 µM | TGI (U251 CNS): > 100 µM | TGI (HCT-15 colon): > 100 µM | TGI (MCF7 breast): > 100 µM | TGI (MDA-MB-231 breast): > 100 µM | TGI (MALME-3M melanoma): > 100 µM | TGI (RPMI-8226 leukemia): > 100 µM | TGI (SF-268 CNS): > 100 µM | TGI (A498 renal): > 100 µM

CN(C)c1ccc(-c2nc(-c3cc4c(ccc5ccccc54)oc3=O)cs2)cc1
TGI (ACHN renal): > 100 µM | TGI (U251 CNS): > 100 µM | TGI (UACC-62 melanoma): > 100 µM | TGI (HCT-15 colon): > 100 µM | TGI (MCF7 breast): > 100 µM | TGI (MDA-MB-231 breast): > 100 µM | TGI (MALME-3M melanoma): > 100 µM | TGI (RPMI-8226 leukemia): > 100 µM | TGI (SF-268 CNS): > 100 µM

Cc1ccc2ccccc2c1CC1S(=O)(=O)OCCOS1(=O)=O
TGI (ACHN renal): 28.8 µM | TGI (U251 CNS): 24.7 µM | TGI (HCT-15 colon): 42.9 µM | TGI (MCF7 breast): 23.1 µM | TGI (MDA-MB-231 breast): 29.1 µM | TGI (MALME-3M melanoma): 25.2 µM | TGI (RPMI-8226 leukemia): 32.3 µM

OC(CC(c1ccccc1)c1ccc(Cl)cc1)c1ccc(Cl)cc1 (stereo not drawn)
TGI (ACHN renal): 77.6 µM | TGI (U251 CNS): > 100 µM | TGI (UACC-62 melanoma): > 100 µM | TGI (HCT-15 colon): > 100 µM | TGI (MCF7 breast): 86.2 µM | TGI (MALME-3M melanoma): 79.1 µM | TGI (RPMI-8226 leukemia): 70 µM | TGI (SF-268 CNS): > 100 µM | TGI (A498 renal): 69.1 µM

CN(C)c1ccc(C(=NNC(=O)c2cc3ccccc3[nH]2)c2ccc(N(C)C)cc2)cc1
TGI (ACHN renal): 24.9 µM | TGI (U251 CNS): 14.5 µM | TGI (UACC-62 melanoma): > 54 µM | TGI (HCT-15 colon): > 100 µM | TGI (MCF7 breast): > 51 µM | TGI (MDA-MB-231 breast): 12.9 µM | TGI (SF-268 CNS): 5.31 µM | TGI (A498 renal): 26.3 µM

COc1ccc(Cn2nc(OCc3ccccn3)c3cc([N+](=O)[O-])ccc32)cc1
TGI (ACHN renal): > 100 µM | TGI (UACC-62 melanoma): > 100 µM | TGI (HCT-15 colon): > 100 µM | TGI (MCF7 breast): > 100 µM | TGI (MDA-MB-231 breast): > 100 µM | TGI (MALME-3M melanoma): > 100 µM | TGI (RPMI-8226 leukemia): > 100 µM | TGI (SF-268 CNS): > 100 µM | TGI (A498 renal): > 100 µM

COc1cc(C2C(Cl)C(=O)N2c2ccc(Br)cc2)cc(I)c1O (stereo not drawn)
TGI (ACHN renal): > 100 µM | TGI (U251 CNS): > 100 µM | TGI (UACC-62 melanoma): > 100 µM | TGI (HCT-15 colon): > 100 µM | TGI (MCF7 breast): > 100 µM | TGI (MDA-MB-231 breast): > 100 µM | TGI (RPMI-8226 leukemia): > 100 µM | TGI (SF-268 CNS): > 100 µM | TGI (A498 renal): > 100 µM

Cc1nc2c(n1Cc1ccc(Cl)cc1)C(=O)c1ccccc1C2=O
TGI (ACHN renal): > 75 µM | TGI (U251 CNS): > 75 µM | TGI (UACC-62 melanoma): > 75 µM | TGI (HCT-15 colon): > 75 µM | TGI (MALME-3M melanoma): > 75 µM | TGI (SF-268 CNS): > 75 µM

C#CC(C)(C)Oc1cc(OC)c2c(=O)c3ccccc3n(C)c2c1
TGI (ACHN renal): 64.6 µM | TGI (U251 CNS): > 100 µM | TGI (UACC-62 melanoma): 32 µM | TGI (HCT-15 colon): 44.5 µM | TGI (MCF7 breast): > 100 µM | TGI (MDA-MB-231 breast): 56.1 µM | TGI (RPMI-8226 leukemia): 25 µM | TGI (SF-268 CNS): 73 µM

CSc1c(C(C)=O)c(O)n(-c2ccc(Cl)cc2)c(=O)c1C#N
TGI (U251 CNS): > 100 µM | TGI (UACC-62 melanoma): > 100 µM | TGI (HCT-15 colon): 99.5 µM | TGI (MCF7 breast): > 100 µM | TGI (MDA-MB-231 breast): > 100 µM | TGI (MALME-3M melanoma): > 100 µM | TGI (RPMI-8226 leukemia): 99.2 µM | TGI (SF-268 CNS): > 100 µM | TGI (A498 renal): 93.5 µM

CC1=NN(c2nc(N)nc(/C(C#N)=C/c3ccncc3)n2)C(C)(C)C1
TGI (ACHN renal): > 100 µM | TGI (U251 CNS): > 100 µM | TGI (UACC-62 melanoma): > 100 µM | TGI (HCT-15 colon): > 100 µM | TGI (MCF7 breast): > 100 µM | TGI (MDA-MB-231 breast): > 100 µM | TGI (RPMI-8226 leukemia): > 100 µM | TGI (SF-268 CNS): > 100 µM | TGI (A498 renal): > 100 µM

O=C1CCSSCCC(=O)Nc2ccccc2N1
TGI (ACHN renal): > 100 µM | TGI (U251 CNS): > 100 µM | TGI (UACC-62 melanoma): > 100 µM | TGI (HCT-15 colon): > 100 µM | TGI (MDA-MB-231 breast): > 100 µM | TGI (MALME-3M melanoma): > 100 µM | TGI (RPMI-8226 leukemia): > 100 µM | TGI (SF-268 CNS): > 100 µM | TGI (A498 renal): > 100 µM

CC(C)=CCN(N=O)c1ncnc2nc[nH]c12
TGI (ACHN renal): > 100 µM | TGI (MCF7 breast): > 100 µM | TGI (MDA-MB-231 breast): > 100 µM | TGI (MALME-3M melanoma): > 100 µM | TGI (RPMI-8226 leukemia): > 100 µM | TGI (SF-268 CNS): > 100 µM | TGI (A498 renal): > 100 µM

CC1=NNC(N)=N/C1=C/C(Sc1ccc(Cl)cc1)c1cccs1 (stereo not drawn)
TGI (ACHN renal): 42.5 µM | TGI (U251 CNS): > 100 µM | TGI (HCT-15 colon): 30 µM | TGI (MCF7 breast): 20.4 µM | TGI (MALME-3M melanoma): 27.1 µM | TGI (RPMI-8226 leukemia): 64.3 µM | TGI (SF-268 CNS): 30.5 µM | TGI (A498 renal): 37.1 µM

NC1=NS(=O)(=O)N=C(N)C1=Cc1ccc([N+](=O)[O-])o1
TGI (ACHN renal): 30.6 µM | TGI (U251 CNS): > 100 µM | TGI (UACC-62 melanoma): 30.2 µM | TGI (HCT-15 colon): 30.7 µM | TGI (MALME-3M melanoma): 29.7 µM | TGI (RPMI-8226 leukemia): 70 µM | TGI (SF-268 CNS): 31.3 µM

COc1ccccc1C1C(C#N)=C(N)OC2=C1C(=O)CCC2 (stereo not drawn)
GI50 (ACHN renal): > 100 µM | TGI (ACHN renal): > 100 µM | GI50 (U251 CNS): > 100 µM | TGI (U251 CNS): > 100 µM | GI50 (HCT-15 colon): > 100 µM | TGI (HCT-15 colon): > 100 µM | GI50 (MCF7 breast): > 100 µM | TGI (MCF7 breast): > 100 µM | GI50 (MDA-MB-231 breast): 16.2 µM | TGI (MDA-MB-231 breast): > 100 µM | GI50 (MALME-3M melanoma): > 100 µM | TGI (MALME-3M melanoma): > 100 µM | GI50 (RPMI-8226 leukemia): 5.77 µM | TGI (RPMI-8226 leukemia): 44.2 µM | GI50 (SF-268 CNS): > 100 µM | TGI (SF-268 CNS): > 100 µM | GI50 (A498 renal): > 100 µM | TGI (A498 renal): > 100 µM

Cc1ccc(-c2cc(-c3ccc(Cl)cc3)nc(/N=C3\C(=O)N(CN4CCCCC4)c4ccc(Cl)cc43)n2)cc1
TGI (ACHN renal): 92.5 µM | TGI (U251 CNS): 76.2 µM | TGI (UACC-62 melanoma): > 100 µM | TGI (HCT-15 colon): > 100 µM | TGI (MCF7 breast): 77.9 µM | TGI (MDA-MB-231 breast): > 100 µM | TGI (MALME-3M melanoma): > 100 µM | TGI (SF-268 CNS): 40.3 µM | TGI (A498 renal): 42.3 µM

C=CCc1c(O)c2ccccc2[nH]c1=O
TGI (ACHN renal): > 100 µM | TGI (U251 CNS): > 100 µM | TGI (HCT-15 colon): > 100 µM | TGI (MCF7 breast): > 100 µM | TGI (MDA-MB-231 breast): > 100 µM | TGI (MALME-3M melanoma): > 100 µM | TGI (RPMI-8226 leukemia): > 100 µM | TGI (A498 renal): > 100 µM

O=C(C[C@@H]1NCCC[C@H]1O)Cn1cnc2cc(Br)c(Cl)cc2c1=O
TGI (ACHN renal): 1.21 µM | TGI (U251 CNS): 0.256 µM | TGI (HCT-15 colon): 0.403 µM | TGI (MCF7 breast): 20.3 µM | TGI (MDA-MB-231 breast): 0.285 µM | TGI (MALME-3M melanoma): 0.144 µM | TGI (RPMI-8226 leukemia): 0.128 µM | TGI (SF-268 CNS): 0.61 µM | TGI (A498 renal): 0.316 µM

CCCCN(CCCC)C(=NCc1ccccc1)NC#N
TGI (ACHN renal): 65.9 µM | TGI (U251 CNS): 35.7 µM | TGI (UACC-62 melanoma): 33.6 µM | TGI (HCT-15 colon): 28.2 µM | TGI (MALME-3M melanoma): 87.4 µM | TGI (RPMI-8226 leukemia): 79.3 µM | TGI (SF-268 CNS): 60.3 µM | TGI (A498 renal): 42.6 µM

Cc1cccc(NC(=O)CC(=O)N2N=C(N3c4ccccc4Sc4ccccc43)CC2c2ccccc2)c1 (stereo not drawn)
TGI (ACHN renal): > 100 µM | TGI (U251 CNS): > 100 µM | TGI (UACC-62 melanoma): > 100 µM | TGI (HCT-15 colon): > 100 µM | TGI (MCF7 breast): > 100 µM | TGI (MDA-MB-231 breast): > 100 µM | TGI (RPMI-8226 leukemia): > 100 µM | TGI (SF-268 CNS): > 100 µM | TGI (A498 renal): > 100 µM
